Experimental data as given in article PMC8839658, “Design and Activity of Novel Oxadiazole Based Compounds That Target Poly(ADP-ribose) Polymerase” (Molecules, 2022).

Test system: MCF-7 cells
Experiment: MCF-7 cell viability assay (Alamar Blue)
Type: cell-based, human
Settings: Homo sapiens, MCF7, 72 h, MCF-7, 72 h, Alamar Blue; read-out: IC50, cell viability of MCF-7 cells
Method: Initially, the newly synthesized oxadiazoles were examined in cell viability studies in human breast cancer (MCF-7) cells using Alamar Blue assays.
MCF-7 and MDA-MB-231 (2000) cells were cultured in MEM or Leibovitz’s L-15 medium enriched with 2% FBS and maintained in a humidified atmosphere of 5% CO2 at 37 °C [44]. DMSO dissolved compounds were kept as a stock solution, and diluted with a cell culture medium to the desired concentration. Cancer cells (4 × 10^3) were grown overnight in 96-well plates, cultured, and treated with oxadiazoles or Olaparib at 0, 0.01, 0.1, 10, 100, and 1000 µM concentrations for 72 h. The inhibitory effect of the compounds was assessed using Alamar Blue reagent.
MCF-7 and MDA-MB-231 were treated with 5u, 5s and Olaparib (0, 0.01, 0.1, 1, 10, 100 µM) for 72 h, respectively. The viability of MCF-7 (A) and MDA-MB-231 cells (B) were analyzed using a microplate reader to measure the fluorescence of Alamar Blue reagent (excitation wavelength is between 530–560 nm and emission wavelength is 590 nm). The results are means of triplicate determinations.

| SMILES | IC50 [µM] |
| --- | --- |
| c1cncc(-c2cccc(-c3nnc(-c4ccc5c(c4)OCCO5)o3)c2)c1 [C00016] | 182 |
| COc1ccc(Cc2nnc(-c3cccc(-c4cccnc4)c3)o2)cc1OC [compound 5m, 2-(3,4-Dimethoxybenzyl)-5-(3-(pyridin-3-yl)phenyl)-1,3,4-oxadiazole] | 27.1 |
| COc1ccc(Cc2nnc(-c3cccc(-c4ccc(C(C)=O)s4)c3)o2)cc1 [compound 5w, 1-(5-(3-(5-(4-Methoxybenzyl)-1,3,4-oxadiazol-2-yl)phenyl)thiophen-2-yl)ethanone] | 23.1 |
| COc1ccc(Cc2nnc(-c3cccc(-c4cccnc4)c3)o2)cc1 [C00013] | 30.9 |
| COc1ccc(Cc2nnc(-c3cccc(-c4cnc(F)c(C)c4)c3)o2)cc1 [C00018] | 41.2 |
| Cc1cncc(-c2cccc(-c3nnc(-c4ccc5c(c4)OCCO5)o3)c2)c1C [C00011] | 76.4 |
| Cc1cc(-c2cccc(-c3nnc(-c4ccc5c(c4)OCCO5)o3)c2)cnc1F [C00022] | 84 |
| O=C(NC1CCCC1)c1cccc(-c2cccc(-c3nnc(-c4ccc5c(c4)OCCO5)o3)c2)c1 [C00006] | 161 |
| c1cc(-c2ccncc2)cc(-c2nnc(-c3ccc4c(c3)OCCO4)o2)c1 [C00012] | > 100 |
| COc1cccc(-c2cccc(-c3nnc(-c4ccc5c(c4)OCCO5)o3)c2)c1 [C00008] | 345 |
| COc1ccc(Cc2nnc(-c3cccc(-c4ccc(C(C)=O)s4)c3)o2)cc1OC [C00025] | > 100 |
| Cc1c(-c2cccc(-c3nnc(-c4ccc5c(c4)OCCO5)o3)c2)ccnc1F [C00017] | 265 |
| COc1cccc2c1C(=O)c1c(O)c3c(c(O)c1C2=O)C[C@@](O)(C(=O)CO)C[C@@H]3O[C@H]1C[C@H](N)[C@H](O)[C@H](C)O1 [Doxorubicin, reference compound] | 0.24 |
| COc1ccc(Cc2nnc(-c3cccc(-c4cnc(F)c(C)c4)c3)o2)cc1OC [compound 5p, 2-(3,4-Dimethoxybenzyl)-5-(3-(6-fluoro-5-methylpyridin-3-yl)phenyl)-1,3,4-oxadiazole] | 18.4 |
| COc1ccc(Cc2nnc(-c3cccc(-c4ccnc(F)c4C)c3)o2)cc1 [compound 5r, 2-(3-(2-Fluoro-3-methylpyridin-4-yl)phenyl)-5-(4-methoxybenzyl)-1,3,4-oxadiazole] | 25 |
| COc1ccc(Cc2nnc(-c3cccc(-c4cncnc4)c3)o2)cc1 [C00003] | 31.5 |
| FC(F)(F)c1ccc(-c2cccc(-c3nnc(-c4ccc5c(c4)OCCO5)o3)c2)cc1 [C00004] | 205 |
| c1cc(-c2nnc(-c3ccc4c(c3)OCCO4)o2)cc(-c2cccc3ccccc23)c1 [C00010] | 74.8 |
| Cc1cc(-c2cccc(-c3nnc(-c4ccc5c(c4)OCCO5)o3)c2)cnc1Cl [C00002] | 160 |
| COc1ccc(Cc2nnc(-c3cccc(-c4cncnc4)c3)o2)cc1OC [compound 5h, 2-(3,4-Dimethoxybenzyl)-5-(3-(pyrimidin-5-yl)phenyl)-1,3,4-oxadiazole] | 21.8 |
| O=Cc1cccc(-c2cccc(-c3nnc(-c4ccc5c(c4)OCCO5)o3)c2)c1 [C00021] | 85.3 |
| c1cc(-c2cncnc2)cc(-c2nnc(-c3ccc4c(c3)OCCO4)o2)c1 [C00007] | 43.5 |
| COc1ccc(Cc2nnc(-c3cccc(-c4cncc(C)c4C)c3)o2)cc1OC [C00009] | 33.2 |

Same assay, conditions: MCF-7, 72 h, Alamar Blue; read-out: IC50, cell viability of MCF-7 cells

| SMILES | IC50 [µM] |
| --- | --- |
| COc1ccc(Cc2nnc(-c3cccc(-c4ccnc(F)c4C)c3)o2)cc1OC [C00015] | 15.3 |
| COc1ccc(Cc2nnc(-c3cccc(-c4cccc(C=O)c4)c3)o2)cc1 [C00019] | 1.45 |
| COc1ccc(Cc2nnc(-c3cccc(-c4cncnc4)c3)o2)cc1OC [C00005] | 21.9 |
| COc1ccc(Cc2nnc(-c3cccc(-c4ccnc(F)c4C)c3)o2)cc1 [C00024] | 25 |
| COc1ccc(Cc2nnc(-c3cccc(-c4cnc(F)c(C)c4)c3)o2)cc1OC [C00020] | 18.4 |
| COc1ccc(Cc2nnc(-c3cccc(-c4cccnc4)c3)o2)cc1OC [C00014] | 27.1 |
| COc1ccc(Cc2nnc(-c3cccc(-c4ccc(C(C)=O)s4)c3)o2)cc1 [C00023] | 23.1 |

Test system: not given
Experiment: not given
Settings: not given

| SMILES | melting point [°C] |
| --- | --- |
| COc1ccc(Cc2nnc(-c3cccc(-c4cccnc4)c3)o2)cc1OC [compound 5m, 2-(3,4-Dimethoxybenzyl)-5-(3-(pyridin-3-yl)phenyl)-1,3,4-oxadiazole] | 78 to 80 |
| c1cncc(-c2cccc(-c3nnc(-c4ccc5c(c4)OCCO5)o3)c2)c1 [5n, 2-(2,3-Dihydrobenzo[b][1,4]dioxin-6-yl)-5-(3-(pyridin-3-yl)phenyl)-1,3,4-oxadiazole] | 138 to 140 |
| Cc1cc(-c2cccc(-c3nnc(-c4ccc5c(c4)OCCO5)o3)c2)cnc1F [5q, 2-(2,3-Dihydrobenzo[b][1,4]dioxin-6-yl)-5-(3-(6-fluoro-5-methylpyridin-3-yl)phenyl)-1,3,4-oxadiazole] | 144 to 146 |
| COc1ccc(Cc2nnc(-c3cccc(-c4cncc(C)c4C)c3)o2)cc1OC [compound 5j, 2-(3,4-Dimethoxybenzyl)-5-(3-(4,5-dimethylpyridin-3-yl)phenyl)-1,3,4-oxadiazole] | 90 to 92 |
| c1cc(-c2nnc(-c3ccc4c(c3)OCCO4)o2)cc(-c2cccc3ccccc23)c1 [5e, 2-(2,3-Dihydrobenzo[b][1,4]dioxin-6-yl)-5-(3-(naphthalen-1-yl)phenyl)-1,3,4-oxadiazole] | 156 to 158 |
| c1cc(-c2cncnc2)cc(-c2nnc(-c3ccc4c(c3)OCCO4)o2)c1 [5i, 2-(2,3-Dihydrobenzo[b][1,4]dioxin-6-yl)-5-(3-(pyrimidin-5-yl)phenyl)-1,3,4-oxadiazole] | 190 to 192 |
| c1cc(-c2ccncc2)cc(-c2nnc(-c3ccc4c(c3)OCCO4)o2)c1 [5f, 2-(2,3-Dihydrobenzo[b][1,4]dioxin-6-yl)-5-(3-(pyridin-4-yl)phenyl)-1,3,4-oxadiazole] | 194 to 196 |
| Cc1c(-c2cccc(-c3nnc(-c4ccc5c(c4)OCCO5)o3)c2)ccnc1F [5t, 2-(2,3-Dihydrobenzo[b][1,4]dioxin-6-yl)-5-(3-(2-fluoro-3-methylpyridin-4-yl)phenyl)-1,3,4-oxadiazole] | 128 to 130 |
| COc1ccc(Cc2nnc(-c3cccc(-c4cnc(F)c(C)c4)c3)o2)cc1 [compound 5o, 2-(3-(6-Fluoro-5-methylpyridin-3-yl)phenyl)-5-(4-methoxybenzyl)-1,3,4-oxadiazole] | 86 to 88 |
| COc1ccc(Cc2nnc(-c3cccc(-c4cnc(F)c(C)c4)c3)o2)cc1OC [compound 5p, 2-(3,4-Dimethoxybenzyl)-5-(3-(6-fluoro-5-methylpyridin-3-yl)phenyl)-1,3,4-oxadiazole] | 91 to 93 |
| COc1ccc(Cc2nnc(-c3cccc(-c4ccnc(F)c4C)c3)o2)cc1 [compound 5r, 2-(3-(2-Fluoro-3-methylpyridin-4-yl)phenyl)-5-(4-methoxybenzyl)-1,3,4-oxadiazole] | 94 to 96 |
| COc1ccc(Cc2nnc(-c3cccc(-c4cncnc4)c3)o2)cc1 [compound 5g, 2-(4-Methoxybenzyl)-5-(3-(pyrimidin-5-yl)phenyl)-1,3,4-oxadiazole] | 90 to 92 |
| O=C(NC1CCCC1)c1cccc(-c2cccc(-c3nnc(-c4ccc5c(c4)OCCO5)o3)c2)c1 [5c, N-Cyclopentyl-3′-(5-(2,3-dihydrobenzo[b][1,4]dioxin-6-yl)-1,3,4-oxadiazol-2-yl)-[1,1′-biphenyl]-3-carboxamide] | 186 to 188 |
| COc1ccc(Cc2nnc(-c3cccc(-c4cncnc4)c3)o2)cc1OC [compound 5h, 2-(3,4-Dimethoxybenzyl)-5-(3-(pyrimidin-5-yl)phenyl)-1,3,4-oxadiazole] | 98 to 100 |
| FC(F)(F)c1ccc(-c2cccc(-c3nnc(-c4ccc5c(c4)OCCO5)o3)c2)cc1 [5b, 2-(2,3-Dihydrobenzo[b][1,4]dioxin-6-yl)-5-(4′-(trifluoromethyl)-[1,1′-biphenyl]-3-yl)-1,3,4-oxadiazole] | 160 to 162 |
| Cc1cncc(-c2cccc(-c3nnc(-c4ccc5c(c4)OCCO5)o3)c2)c1C [5k, 2-(2,3-Dihydrobenzo[b][1,4]dioxin-6-yl)-5-(3-(4,5-dimethylpyridin-3-yl)phenyl)-1,3,4-oxadiazole] | 198 to 200 |
